One assay concerns the target T1, CXCR1 (Homo sapiens, UniProt P25024).
T1 construct: endogenous in cells; host or cells: human polymorphonucleate leukocytes (PMNs) from blood of healthy volunteers
T1 sequence (P25024 1-350): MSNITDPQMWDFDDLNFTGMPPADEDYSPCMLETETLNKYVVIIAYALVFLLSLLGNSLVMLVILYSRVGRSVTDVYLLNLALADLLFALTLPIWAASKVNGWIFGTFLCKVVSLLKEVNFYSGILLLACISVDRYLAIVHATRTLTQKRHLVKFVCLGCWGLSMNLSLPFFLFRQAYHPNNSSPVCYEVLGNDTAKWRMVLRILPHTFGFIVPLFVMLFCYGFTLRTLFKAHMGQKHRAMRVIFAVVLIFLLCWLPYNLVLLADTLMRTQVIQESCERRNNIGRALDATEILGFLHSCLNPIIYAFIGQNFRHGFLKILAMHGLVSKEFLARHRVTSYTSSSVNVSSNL
The assay can be described thus: IL-8 induced PMN chemotaxis test. Type of assay: cell-based. To be noted: for inhibition at 1 µM: compound 10^−6 M, IL-8 induced PMN chemotaxis, IL-8 10^−9 M, read-out: % inhibition (C = 10^−6 M); for inhibition at 0.01 µM: read-out: % of inhibition IL-8 (c = 10^−8 M). The protocol: (§1) The compounds of the invention of formula (I) were evaluated in vitro for their ability to inhibit chemotaxis of polymorphonucleate leukocytes (hereinafter referred to as PMNs) and monocytes induced by the fractions of IL-8 and GRO-α. For this purpose, in order to isolate the PMNs from heparinized human blood, taken from healthy adult volunteers, mononucleates were removed by means of sedimentation on dextran (according to the procedure disclosed by W. J. Ming et al., J. Immunol., 138, 1469, 1987) and red blood cells by a hypotonic solution. The cell vitality was calculated by exclusion with Trypan blue, whilst the ratio of the circulating polymorphonucleates was estimated on the cytocentrifugate after staining with Diff Quick.
Human recombinant IL-8 (Pepro Tech) was used as stimulating agents in the chemotaxis experiments, giving practically identical results: the lyophilized protein was dissolved in a volume of HBSS containing 0.2% bovin serum albumin (BSA) so thus to […]
(§2) During the chemotaxis assay (according to W. Falket et al., J. Immunol. Methods, 33, 239, 1980) PVP-free filters with a porosity of 5 μm and microchambers suitable for replication were used.
(§3) The compounds of the invention in formula (I) were evaluated at a concentration ranging between 10^−6 and 10^−10 M; for this purpose they were added, at the same concentration, both to the lower pores and the upper pores of the microchamber. Evaluation of the ability of the compounds of the invention of formula (I) to inhibit IL-8-induced chemotaxis of human monocytes was carried out according to the method disclosed by Van Damme J. et al. (Eur. J. Immunol., 19, 2367, 1989).

The target in another assay is T2, CXCR2 (Homo sapiens, UniProt P25025).
T2 construct: endogenous in cells; host or cells: human polymorphonucleate leukocytes (PMNs) from blood of healthy volunteers
T2 sequence (P25025 1-360): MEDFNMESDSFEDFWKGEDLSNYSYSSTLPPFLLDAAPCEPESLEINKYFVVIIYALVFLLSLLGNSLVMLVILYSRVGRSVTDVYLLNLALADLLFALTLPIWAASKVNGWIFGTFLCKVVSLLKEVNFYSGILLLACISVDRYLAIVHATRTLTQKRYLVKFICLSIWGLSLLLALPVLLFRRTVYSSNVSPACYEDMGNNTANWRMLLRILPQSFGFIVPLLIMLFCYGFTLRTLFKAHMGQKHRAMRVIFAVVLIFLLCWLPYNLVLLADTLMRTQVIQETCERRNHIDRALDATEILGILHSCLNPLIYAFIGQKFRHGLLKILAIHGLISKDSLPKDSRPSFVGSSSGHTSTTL
As to the kind of experiment: GRO-α induced PMN chemotaxis test. Type of assay: cell-based. To be noted: compound 10^−8 M, PMN chemotaxis induced by GRO-α; for inhibition at 0.01 µM: read-out: % of inhibition GRO-α (c = 10^−8 M). Here is the method:
as §1, §2, §3
In the table below, biological activities of compounds showing high potency in the inhibition of PMN chemotaxis induced as by IL-8 as by the selective CXCR2 agonist GRO-α are reported.

The mark [1] stands for this setting: compound 10^−8 M, PMN chemotaxis induced by IL-8.

One may read the inhibition as the change of the read-out against control, counted positive when it falls. For the compound `CCC(CC)c1cccc(C(C)C(=O)O)c1` (racemic) [Example 6, (R,S) 2-[3′-(alpha-ethyl-propyl)phenyl]propionic acid], the inhibition at 1 µM on CXCR1 came to 58 ± 2%. Turning to `CC(C(=O)O)c1ccccc1Nc1c(Cl)cccc1Cl` (racemic) [Example 18, (R,S) 2-[2′-(2″,6″-dichlorophenyl)aminophenylpropionic acid], the inhibition at 1 µM on CXCR1 was determined as 52 ± 3%. As to `CC(C(=O)O)c1ccccc1Oc1c(Cl)cccc1Cl` (racemic) [Example 25, (R,S) 2-[2′-(2″,6″-dichloro)phenoxy]phenylpropionic acid], the inhibition at 1 µM on CXCR1 came to 41 ± 9%. Take `CC(C)c1cccc(C(C)C(=O)O)c1` (stereo not drawn) [Example 5, 2-[(3′-isopropyl)phenyl]propionic acid]: the inhibition at 1 µM on CXCR1 amounted to 51 ± 12%. With `CC(C(=O)O)c1cccc(C(C)c2ccccc2)c1` (stereo not drawn) [Example 7], the inhibition at 1 µM at CXCR1 worked out at 54 ± 4%. Consider `CC(C)c1cccc([C@@H](C)C(=O)O)c1` [Example 10, (R)-2-[(3′-isopropyl)phenyl]-propionic acid], for which, on CXCR1, the inhibition at 1 µM came to 43 ± 18%. For `CC(C)c1cccc([C@H](C)C(=O)O)c1` [Example 14, (S)-2-[(3′-isopropyl)phenyl]-propionic acid], at CXCR1, the inhibition at 1 µM is 50 ± 9%. For `CC(O)c1cccc(C(C)C(=O)O)c1` [Example 16, (R,S), (R,S) 2-[3′-(alpha-hydroxy-ethyl)phenyl]propionic acid], the inhibition at 1 µM on CXCR1 worked out at 57 ± 6%. As to `C[C@@H](C(=O)O)c1ccccc1Nc1c(Cl)cccc1Cl` [Example 19], the inhibition at 1 µM at CXCR1 is 46 ± 14%. For `C[C@H](C(=O)O)c1ccccc1Nc1c(Cl)cccc1Cl` [Example 20], the inhibition at 1 µM on CXCR1 turned out to be 50 ± 7%. As to `C[C@@H](C(=O)O)c1ccc(NS(=O)(=O)c2ccccc2)cc1` [Example 27], the “% of inhibition GRO-α (c = 10^−8 M)” value on CXCR2 was 33 ± 11+ %. In addition, the “% of inhibition IL-8 (c = 10^−8 M)” value at CXCR1 (setting [1]) is 49 ± 11%. With `C[C@@H](C(=O)O)c1ccc(NS(C)(=O)=O)cc1` [Example 28, (R) 2-(4′-methanesulfonylamino)phenylpropionic acid], the inhibition at 0.01 µM was found to be 32 ± 5% at CXCR2 and 25 ± 7% at CXCR1 (setting [1]).

In the case of `CC(C)S(=O)(=O)Nc1ccc([C@@H](C)C(=O)O)cc1` [Example 29, (R) 2-[4′-(2″-propane)sulfonylamino]phenylpropionic acid], the inhibition at 0.01 µM at CXCR2 turned out to be 44 ± 12%; on CXCR1 (setting [1]), 54 ± 14%. For `C[C@@H](C(=O)O)c1ccc(NS(=O)(=O)C(F)(F)F)cc1` [Example 30, (R) 2-(4′-trifluoromethanesulfonylamino)phenylpropionic acid] the same measures were 40 ± 14% and 8 ± 10%. For `C[C@@H](C(=O)O)c1ccc(NS(=O)(=O)Cc2ccccc2)cc1` [Example 31, (R) 2-(4′-benzylsulfonylamino)phenylpropionic acid], the inhibition at 0.01 µM on CXCR2 came out at 24 ± 8%; on CXCR1 (setting [1]), 60 ± 10%. The corresponding values for `C[C@@H](C(=O)O)c1ccc(NS(=O)(=O)c2ccccc2Cl)cc1` [Example 32, (R) 2-[4′-(2″-chloro)benzenesulfonylamino]phenylpropionic acid] are 66 ± 10% and -2 ± 10%. As to `CCc1ccccc1S(=O)(=O)Nc1ccc([C@@H](C)C(=O)O)cc1` [Example 33, (R) 2-[4′-(2″-ethyl)benzenesulfonylamino]phenylpropionic acid], the inhibition at 0.01 µM at CXCR2 worked out at 80 ± 10%; at CXCR1 (setting [1]), 44 ± 14%. For `C[C@@H](C(=O)O)c1ccc(NS(N)(=O)=O)cc1` [Example 34, (R) 2-(4′-aminosulfonylamino)phenylpropionic acid] the same measures were 2 ± 5% and 55 ± 10%. For the compound `C[C@@H](C(=O)O)c1ccc(OS(=O)(=O)Cc2ccccc2)cc1` [Example 36, (R) 2-(4′-benzylsulfonyloxy)phenylpropionic acid], the inhibition at 0.01 µM at CXCR2 amounted to 25 ± 11%; on CXCR1 (setting [1]), 59 ± 11%. On to `C[C@@H](C(=O)O)c1ccc(OS(=O)(=O)C(F)(F)F)cc1` [Example 37, (R) 2-(4′-trifluoromethanesulfonyloxy)phenylpropionic acid], for which the figures for the inhibition at 0.01 µM on CXCR2 and on CXCR1 (setting [1]) were 59 ± 10% and 62 ± 7%, respectively. Take `CC(C)S(=O)(=O)Oc1ccc([C@@H](C)C(=O)O)cc1` [Example 38, (R) 2-[4′-(2″-propane)sulfonyloxy]phenylpropionic acid]: the inhibition at 0.01 µM on CXCR2 was 46 ± 6%; at CXCR1 (setting [1]), 49 ± 8%. For the compound `C[C@@H](C(=O)O)c1ccc(OS(=O)(=O)c2ccccc2Cl)cc1` [Example 39, (R) 2-[4′-(2″-chloro)benzenesulfonyloxy]phenylpropionic acid], the inhibition at 0.01 µM stood at 65 ± 10% at CXCR2 and 25 ± 7% at CXCR1 (setting [1]).

Consider `CCc1ccccc1S(=O)(=O)Oc1ccc([C@@H](C)C(=O)O)cc1` [Example 40, (R) 2-[4′-(2″-ethyl)benzenesulfonyloxy]phenylpropionic acid], for which the results for the inhibition at 0.01 µM on CXCR2 and on CXCR1 (setting [1]) were 70 ± 10% and 45 ± 13%, respectively.

As for `C[C@@H](C(=O)O)c1ccc(OS(N)(=O)=O)cc1` [Example 41, (R) 2-(4′-aminosulfonyloxy)phenylpropionic acid], the inhibition at 0.01 µM at CXCR2 worked out at 5 ± 7%; on CXCR1 (setting [1]) it was 65 ± 10%.

For `C[C@@H](C(=O)O)c1ccc(CS(=O)(=O)c2ccccc2)cc1` [Example 42, (R) 2-(4′-benzenesulfonylmethyl)phenylpropionic acid], the inhibition at 0.01 µM on CXCR2 was 52 ± 5%; on CXCR1 (setting [1]), 60 ± 7%.

Turning to `C[C@@H](C(=O)O)c1ccc(CS(=O)(=O)C(F)(F)F)cc1` [Example 43, (R) 2-(4′-trifluoromethanesulfonylmethyl)phenylpropionic acid], the figures for the inhibition at 0.01 µM at CXCR2 and on CXCR1 (setting [1]) were 45 ± 7% and 48 ± 7%, respectively.

For the origin of these results see patent publication US8063242B2, “2-aryl-propionic acids and pharmaceutical compositions containing them” (Dompe PHA.R.MA S.p.A., priority 2001, dated 2011).
